Assay results published in patent US20250057827A1, “CYTOTOXICITY TARGETING CHIMERAS FOR PROSTATE SPECIFIC MEMBRANE ANTIGEN-EXPRESSING CELLS” (GLAXOSMITHKLINE INTELLECTUAL PROPERTY DEVELOPMENT LIMITED, priority 2022, published 2025).

The compounds below were run against T1, PSMA (target cells: LNCaP cells) (Homo sapiens, UniProt Q04609) (assay: Antibody dependent cellular cytotoxicity (ADCC) reporter assay). Details: anti-cotinine antibody (SEQ ID NO: 11/12), Jurkat FcγRIIIa NFAT-luciferase reporter cells, 12-18 hours, EC50 in molar, average if more than one run.
T1 construct: Target cells: LNCaP cells (typically 1000-20,000 cells per well); endogenous in cells; host or cells: LNCaP cells (target cells); Jurkat FcγRIIIa/NFAT-luciferase reporter cells also in the well
T1 sequence (Q04609 whole entry): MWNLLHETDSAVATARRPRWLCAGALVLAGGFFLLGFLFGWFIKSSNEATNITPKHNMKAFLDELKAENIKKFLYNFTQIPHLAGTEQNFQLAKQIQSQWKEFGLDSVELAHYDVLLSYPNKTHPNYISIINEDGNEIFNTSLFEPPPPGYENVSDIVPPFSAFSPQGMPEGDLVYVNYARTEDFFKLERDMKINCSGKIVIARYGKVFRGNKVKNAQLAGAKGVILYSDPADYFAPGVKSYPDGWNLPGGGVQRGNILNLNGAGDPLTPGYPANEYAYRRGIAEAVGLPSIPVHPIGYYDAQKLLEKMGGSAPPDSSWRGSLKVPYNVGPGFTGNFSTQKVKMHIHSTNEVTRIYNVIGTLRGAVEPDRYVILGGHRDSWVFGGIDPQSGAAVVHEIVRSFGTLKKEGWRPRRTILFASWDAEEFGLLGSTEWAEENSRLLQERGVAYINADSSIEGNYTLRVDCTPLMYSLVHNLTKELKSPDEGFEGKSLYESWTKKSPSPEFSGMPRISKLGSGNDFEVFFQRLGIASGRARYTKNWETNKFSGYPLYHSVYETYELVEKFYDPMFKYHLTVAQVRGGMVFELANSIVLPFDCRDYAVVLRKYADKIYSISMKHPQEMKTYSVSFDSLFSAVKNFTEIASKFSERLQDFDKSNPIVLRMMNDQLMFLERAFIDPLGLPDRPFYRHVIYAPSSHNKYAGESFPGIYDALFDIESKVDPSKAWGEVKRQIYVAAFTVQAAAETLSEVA
Format: cell-based
Set-up: key to ADCC Reporter Assay pEC50: Inactive: inactive = pEC50 < 5
Description: An antibody dependent cellular cytotoxicity (ADCC) reporter assay was conducted using the following four assay components: (i) ARM compound of Formula (I) targeting PSMA (concentrations ranging from 1 pM to 10 μM); (ii) anti-cotinine antibody having a heavy chain sequence of SEQ ID NO: 11 and a light chain sequence of SEQ ID NO: 12 (rabbit variable region with human IgG1 Fc domain containing DE mutation (S239D/I332E)) (concentrations ranging from 0.01 μg/mL-200 μg/mL); (iii) Target cells: LNCaP cells (typically 1000-20,000 cells per well); and (iv) Reporter cells—Jurkat cells engineered to express FcγRIIIa with a reporter gene luciferase under the control of the NFAT promoter (typically 3000-75,000 cells per well). Reagents were combined in final volume of 20 μL in 384—well tissue culture treated plate. All four assay components were incubated together for about 12-18 hours. Thereafter, BioGlo Detection reagent (Promega) was added to the wells to lyse the cells and provide a substrate for the luciferase reporter protein.
Luminescence signal was measured on a microplate reader capable of measuring luminescence and signal: background was calculated by dividing the signal of a test well by the signal obtained when no compound of formula (I) was included in the assay. EC50 calculations were done using Graphpad Prism Software, specifically a nonlinear regression curve fit (Y=Bottom+(Top−Bottom)/(1+10^((Log EC50−X)*HillSlope))).
ARMs compounds of Formula (I) were tested for ADCC activity in the above assay in one or more experimental runs and the results are shown in Table 3 below. Potency of the compounds of Formula (I) is reported as a pEC50 values. The pEC50 value is the negative log of the EC50 value, wherein the EC50 value is half maximal effective concentration measured in molar (M). For compounds tested in more than one experimental run, the pEC50 value is reported as an average.
`CN1C(=O)C[C@H](C(=O)N[C@@H](Cc2ccc3ccccc3c2)C(=O)NCCCC[C@H](NC(=O)N[C@@H](CCC(=O)O)C(=O)O)C(=O)O)[C@H]1c1cccnc1` [Example 10, (((S)-1-Carboxy-5-((S)-2-((2S,3S)-1-methyl-5-oxo-2-(pyridin-3-yl)pyrrolidine-3-carboxamido)-3-(naphthalen-2-yl)propanamido)pentyl)carbamoyl)-L-glutamic acid] was tested, and the “ADCC Reporter Assay pEC50” value was “Inactive^1”.

Same assay, conditions: anti-cotinine antibody (SEQ ID NO: 11/12), Jurkat FcγRIIIa NFAT-luciferase reporter cells, 12-18 hours, EC50 in molar, average if more than one run, read-out: ADCC Reporter Assay pEC50 (converted)
Compound `CN1C(=O)C[C@H](C(=O)NCCO[C@H]2CC[C@H](OCCCC(=O)N[C@H]3CC[C@H](C(=O)N[C@@H](Cc4ccc5ccccc5c4)C(=O)NCCCC[C@H](NC(=O)N[C@@H](CCC(=O)O)C(=O)O)C(=O)O)CC3)CC2)[C@H]1c1cccnc1` (racemic) [Example 8, (((S)-1-Carboxy-5-((S)-2-((1R,4S)-4-(4-(((1S,4R)-4-(2-((2S,3S)-1-methyl-5-oxo-2-(pyridin-3-yl)pyrrolidine-3-carboxamido)ethoxy)cyclohexyl)oxy)butanamido)cyclohexane-1-carboxamido)-3-(naphthalen-2-yl)propanamido)pentyl)carbamoyl)-L-glutamic acid] has an EC50 of 2.24 nM. In the case of `CN1C(=O)C[C@H](C(=O)NCCO[C@H]2CC[C@H](OCCCC(=O)N[C@H]3CC[C@H](C(=O)N4CCN(C(=O)CC[C@H](NC(=O)N[C@@H](CCC(=O)O)C(=O)O)C(=O)O)CC4)CC3)CC2)[C@H]1c1cccnc1` [Example 1, (((S)-1-Carboxy-4-(4-((1R,4R)-4-(4-(((1S,4R)-4-(2-((2S,3S)-1-methyl-5-oxo-2-(pyridin-3-yl)pyrrolidine-3-carboxamido)ethoxy)cyclohexyl)oxy)butanamido)cyclohexane-1-carbonyl)piperazin-1-yl)-4-oxobutyl)carbamoyl)-L-glutamic acid], the EC50 is reported as 50.1 nM. `CN1C(=O)C[C@H](C(=O)NCCO[C@H]2CC[C@H](OCCCC(=O)N[C@H]3CC[C@H](C(=O)N[C@H]4CC[C@@H](NC(=O)CC[C@H](NC(=O)N[C@@H](CCC(=O)O)C(=O)O)C(=O)O)CC4)CC3)CC2)[C@H]1c1cccnc1` [Example 2, (((S)-1-Carboxy-4-(((1S,4S)-4-((1R,4S)-4-(4-(((1S,4R)-4-(2-((2S,3S)-1-methyl-5-oxo-2-(pyridin-3-yl)pyrrolidine-3-carboxamido)ethoxy)cyclohexyl)oxy)butanamido)cyclohexane-1-carboxamido)cyclohexyl)amino)-4-oxobutyl)carbamoyl)-L-glutamic acid] was tested, and the EC50 was 50.1 nM. In the case of `CN1C(=O)C[C@H](C(=O)NCCO[C@H]2CC[C@H](OCCCC(=O)N[C@H]3CC[C@H](C(=O)NCCNC(=O)CC[C@H](NC(=O)N[C@@H](CCC(=O)O)C(=O)O)C(=O)O)CC3)CC2)[C@H]1c1cccnc1` [Example 3, (9S,13S)-1-((1R,4R)-4-(4-(((1S,4R)-4-(2-((2S,3S)-1-Methyl-5-oxo-2-(pyridin-3-yl)pyrrolidine-3-carboxamido)ethoxy)cyclohexyl)oxy)butanamido)cyclohexyl)-1,6,11-trioxo-2,5,10,12-tetraazapentadecane-9,13,15-tricarboxylic acid], the EC50 is reported as 126 nM. Work on `CN1C(=O)C[C@H](C(=O)NCCO[C@H]2CC[C@H](OCCCC(=O)N[C@H]3CC[C@H](C(=O)N[C@H]4CC[C@H](NC(=O)CC[C@H](NC(=O)N[C@@H](CCC(=O)O)C(=O)O)C(=O)O)CC4)CC3)CC2)[C@H]1c1cccnc1` [Example 4, (((S)-1-Carboxy-4-(((1R,4R)-4-((1R,4R)-4-(4-(((1S,4R)-4-(2-((2S,3S)-1-methyl-5-oxo-2-(pyridin-3-yl)pyrrolidine-3-carboxamido)ethoxy)cyclohexyl)oxy)butanamido)cyclohexane-1-carboxamido)cyclohexyl)amino)-4-oxobutyl)carbamoyl)-L-glutamic acid] yielded an EC50 of 50.1 nM. `CN1C(=O)C[C@H](C(=O)NCCNC(=O)[C@H](Cc2ccccc2)NC(=O)[C@H](Cc2ccccc2)NC(=O)CCCCCCCNC(=O)CC[C@H](NC(=O)N[C@@H](CCC(=O)O)C(=O)O)C(=O)O)[C@H]1c1cccnc1` [Example 5, (7S,10S,24S,28S)-7,10-Dibenzyl-1-((2S,3S)-1-methyl-5-oxo-2-(pyridin-3-yl)pyrrolidin-3-yl)-1,6,9,12,21,26-hexaoxo-2,5,8,11,20,25,27-heptaazatriacontane-24,28,30-tricarboxylic acid] showed an EC50 of 39.8 nM. `CN1C(=O)C[C@H](C(=O)NCCO[C@H]2CC[C@H](OCCCC(=O)N[C@H]3CC[C@H](C(=O)NCCNC(=O)[C@H](Cc4ccccc4)NC(=O)[C@H](Cc4ccccc4)NC(=O)CCCCCCCNC(=O)CC[C@H](NC(=O)N[C@@H](CCC(=O)O)C(=O)O)C(=O)O)CC3)CC2)[C@H]1c1cccnc1` [Example 6, (7S,10S,24S,28S)-7,10-dibenzyl-1-((1R,4S)-4-(4-(((1S,4R)-4-(2-((2S,3S)-1-methyl-5-oxo-2-(pyridin-3-yl)pyrrolidine-3-carboxamido)ethoxy)cyclohexyl)oxy)butanamido)cyclohexyl)-1,6,9,12,21,26-hexaoxo-2,5,8,11,20,25,27-heptaazatriacontane-24,28,30-tricarboxylic acid] was tested, and the EC50 was 39.8 nM. Work on `CN1C(=O)C[C@H](C(=O)NCCOCCOCCOCCOCCOCCOCCOCCOCCOCCOCCOCCOCCC(=O)NCCNC(=O)[C@H](Cc2ccccc2)NC(=O)[C@H](Cc2ccccc2)NC(=O)CCCCCCCNC(=O)CC[C@H](NC(=O)N[C@@H](CCC(=O)O)C(=O)O)C(=O)O)[C@H]1c1cccnc1` [Example 7, (47S,50S,64S,68S)-47,50-Dibenzyl-1-((2S,3S)-1-methyl-5-oxo-2-(pyridin-3-yl)pyrrolidin-3-yl)-1,41,46,49,52,61,66-heptaoxo-5,8,11,14,17,20,23,26,29,32,35,38-dodecaoxa-2,42,45,48,51,60,65,67-octaazaheptacontane-64,68,70-tricarboxylic acid] yielded an EC50 of 126 nM. `CN1C(=O)C[C@H](C(=O)NCCOCCOCCOCCOCCOCCOCCOCCOCCOCCOCCOCCOCCC(=O)N[C@@H](Cc2ccc3ccccc3c2)C(=O)NCCCC[C@H](NC(=O)N[C@@H](CCC(=O)O)C(=O)O)C(=O)O)[C@H]1c1cccnc1` [Example 9, (((S)-1-Carboxy-5-((S)-2-(1-((2S,3S)-1-methyl-5-oxo-2-(pyridin-3-yl)pyrrolidin-3-yl)-1-oxo-5,8,11,14,17,20,23,26,29,32,35,38-dodecaoxa-2-azahentetracontan-41-amido)-3-(naphthalen-2-yl)propanamido)pentyl)carbamoyl)-L-glutamic acid] gave an EC50 of 8.91 nM.
